Consider 1 compound from US20240099298A1, “BIOINSECTICIDAL COMPOSITIONS CONTAINING MONOTERPENES AND METHODS OF USE THEREOF” (priority 2017, published 2024).

Data set [1] deals with Megalurothrips usitatus (Bagrall) (thrips). Briefly: Median lethal concentration fumigation test, thrips. To be noted: adult thrips, exposed one hour, mortality observed in 24 hours.
For data set [2], the system named is Tetranychus cinnabarinus (Boisduval) (spider mites). To be noted: spider mites, exposed one hour.
A further data set deals with Thrips, M. usitatus. Briefly: Headspace fumigation toxicity of linalool mixed in peanut oil. To be noted: thrips exposed to headspace above the solution. The format is in vivo, Megalurothrips usitatus.
In data set [3] the test system is B. cucuribitae (melon fly). Briefly: Median lethal time (LT50) test, melon fly. Type of data set: in vivo, Bactrocera cucuribitae. From the text: (§1) All treatments and controls were in triplicate.
(§2) Toxicity of Monoterpenes as Fumigants. […] Therefore, to determine how fast the monoterpenes act as fumigants, it was necessary to determine their LT50 values for the target organisms.

Data set [4] relates to T. castaneum (red flour beetle). The experiment in a line: Median lethal time (LT50) test, red flour beetle. Type of data set: in vivo, Tribolium castaneum.
Excerpt: as §1, §2

For the next data set, the system named is M. domestica (housefly). The experiment in a line: Median lethal time (LT50) test, housefly. The format is in vivo, Musca domestica.
Excerpt: as §1, §2

Another data set concerns Aedes aegypti (mosquito). Briefly: Median knockdown concentration (KC50) test, mosquito. The format is in vivo.
Excerpt: as §1
Knockdown Activity of Monoterpenes.

Data set [5] relates to A. japonicus (parasitic wasp). Briefly: Median lethal time (LT50) test, parasitic wasp (natural enemy). To be noted: non-target parasitic wasp.
In data set [6] the target is recombinant gamma-aminobutyric acid receptor-associated protein (rGABARAP) (Frankliniella occidentalis, UniProt A0A6J1T1Q2). Briefly: Microscale thermophoresis (MST) binding to rGABARAP. The settings on record: rGABARAP; read-out: Kd value, MST. From the text:
Preparation of recombinant GABARAP (rGABARAP) protein. RNA was extracted from F. occidentalis and cDNA was then synthesized. GABARAP (GenBank accession No. LOC113211372) was obtained after PCR amplification (Stafford-Banks, et al. (2014) Plos One 9:e94447).
Interaction between ME and rGABARAP. A Nano Temper Monolith NT.115 MST system (Nano Temper, Munich, Germany) was used to assess the binding affinities between the target compounds and rGABARAP according to the published procedures (Zan, et al. (2020) Journal of Agricultural and Food Chemistry 68:6280-6285). Spinosyn A was used as a chemical positive control. Spinosyn A (≥1 nM) can trigger a change of the Cl^− current of insect neuron GABAAR, which is considered to be an insecticidal action mechanism of spinosyn A (Watson (2001) Pesticide Biochemistry and Physiology 71:20-28). Ovalbumin (OVA) (Sangon Biotech, Shanghai, China) is a control protein consisting of 385 amino acid residues. The interaction between OVA and ME was used as a protein control experiment (Huntington, et al. (1995) Protein Science 4:613-621).

The conditions of data set [7]: T 22-25 °C; cited from earlier work.
A further data set concerns adult T. palmi. The settings on record: cited from earlier work.

Converted amounts (≈) assume the structure as drawn. Where only a bound is given, the exact number is not on record here.

recombinant gamma-aminobutyric acid receptor-associated protein (rGABARAP), sequence (A0A6J1T1Q2 1-118): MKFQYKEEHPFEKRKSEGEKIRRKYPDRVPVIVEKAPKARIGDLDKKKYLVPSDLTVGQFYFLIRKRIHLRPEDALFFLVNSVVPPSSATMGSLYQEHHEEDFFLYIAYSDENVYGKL

For the compound `C=CC(C)(O)CCC=C(C)C` (stereo not shown) [Linalool, 3,7-dimethylocta-1,6-dien-3-o1], the “LC50 (fiducial limits)” value was 2.50 µg/mL (≈ 16.2 µM) in data set [1] and 550 µg/mL (≈ 3570 µM) in [2]. Further, the entries for the “LC90 (fiducial limits)” value in [1] and in data set [2] were 6.4 µg/mL (≈ 41.5 µM) and 4330 µg/mL (≈ 28100 µM), respectively. Besides, in the data set on Thrips, M. usitatus, the “LC50 of linalool mixed in peanut oil” value amounted to 4.7%. Moreover, the results for the “LT50 (fiducial limits)” value (in [3]; in data set [4]; in the data set on M. domestica (housefly)) were 2.05 h, 35.1 h and 1.28 h, respectively. Also, the “time within which the insects responded” value in the data set on Aedes aegypti (mosquito) was not above 20 min. Also, the entries for the “KC50 (fiducial limits)” value with Aedes aegypti (mosquito) (20 Minutes) and in the data set on Aedes aegypti (mosquito) (30 Minutes) were more than 243 µg/mL and 69.0 µg/mL, respectively. In addition, the “LT50 (fiducial limits) against A. japonicus” value in [5] was 0.788 (0.71-0.86) hour. Further, the Kd in data set [6] worked out at 12.3 µM. Besides, in [7], the “Vp (Pa)/T (° C.)” value is 21.28/22-25 Pa. In addition, the “LC50, fumigation toxicity” value in the data set with adult T. palmi is 5.5 µg/mL (≈ 35.7 µM). For the same compound, the “fold more effective than dichlorvos” value with adult T. palmi was 15.2 fold.
